Patent US20260297542A1, “HERBICIDE RESISTANT PLANTS” (SYNGENTA CROP PROTECTION AG, priority 2023, published 2026)
Where a chain is given by its changes, count along the chain named.

Tests used:
Assay in all cases: E. coli hemG growth inhibition by herbicide, AtPPO1 variant
Assay type in all cases: cell-based
Conditions in all cases: read-out: percentage growth inhibition
AtPPO1 F478R = target: T1, AtPPO1 F478R (Arabidopsis thaliana, UniProt P55826, F478R)
T1 construct: expressed in transfected cells; host or cells: E. coli BL21(DE3) hemG, pET24a plasmid
T1 sequence (P55826 35-537 F478R): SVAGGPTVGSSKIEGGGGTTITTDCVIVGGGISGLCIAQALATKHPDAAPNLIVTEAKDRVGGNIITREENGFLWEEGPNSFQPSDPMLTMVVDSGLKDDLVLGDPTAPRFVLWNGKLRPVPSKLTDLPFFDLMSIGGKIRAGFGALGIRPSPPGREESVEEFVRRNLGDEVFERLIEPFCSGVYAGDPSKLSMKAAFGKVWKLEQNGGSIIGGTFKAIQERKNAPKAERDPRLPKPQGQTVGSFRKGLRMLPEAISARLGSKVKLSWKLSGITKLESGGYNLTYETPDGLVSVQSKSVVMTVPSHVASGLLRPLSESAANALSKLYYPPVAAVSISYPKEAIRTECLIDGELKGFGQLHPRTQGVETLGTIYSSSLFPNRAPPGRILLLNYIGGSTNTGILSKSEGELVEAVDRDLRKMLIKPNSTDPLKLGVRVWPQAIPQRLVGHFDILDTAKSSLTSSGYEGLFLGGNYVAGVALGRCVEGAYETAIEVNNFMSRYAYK
In short: (§1)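 Variant plasmids were transformed into hemG-null BL21(DE3) and precultured 24 h with hematin. Washed cells were diluted 1:100 into Terrific broth containing 0.1 mM IPTG and herbicide (6.25 ppm 0 or E; 0.78 ppm B) or DMSO. After 24 h at 37° C, OD600 gave percent inhibition.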

AtPPO1 P418M = target: T2, AtPPO1 P418M (Arabidopsis thaliana, UniProt P55826, P418M)
T2 construct: expressed in transfected cells; host or cells: E. coli BL21(DE3) hemG (pET24a, T7 promoter)
T2 sequence (P55826 35-537 P418M): T1 sequence (P55826 35-537 F478R) with P384M, R444F
In short: as §1

AtPPO1 Y361R = target: T3, AtPPO1 Y361R (Arabidopsis thaliana, UniProt P55826, Y361R)
T3 sequence (P55826 35-537 P363R/Y361R): T1 sequence (P55826 35-537 F478R) with R444F
In short: as §1

AtPPO1 C516Q = target: T4, AtPPO1 C516Q (Arabidopsis thaliana, UniProt P55826, C516Q)
T4 construct: expressed in transfected cells; host or cells: E. coli BL21(DE3) hemG, pET24a plasmid
T4 sequence (P55826 35-537 C516Q): T1 sequence (P55826 35-537 F478R) with R444F, C482Q
In short: as §1

Compound	inhibition at 6.25 ppm (AtPPO1 F478R) [%]	inhibition at 6.25 ppm (AtPPO1 P418M) [%]	inhibition at 6.25 ppm (AtPPO1 Y361R) [%]	inhibition at 6.25 ppm (AtPPO1 C516Q) [%]	inhibition at 0.78 ppm (AtPPO1 F478R) [%]	inhibition at 0.78 ppm (AtPPO1 P418M) [%]	inhibition at 0.78 ppm (AtPPO1 Y361R) [%]	inhibition at 0.78 ppm (AtPPO1 C516Q) [%]
CCOC(=O)[C@]1(C)CC(c2cc(-n3c(=O)n(C)c(=S)n(C)c3=O)c(F)cc2Cl)=NO1 [Herbicide D, ethyl (5S)-3-[2-chloro-5-(3,5-dimethyl-2,6-dioxo-4-thioxo-1,3,5-triazinan-1-yl)-4-fluoro-phenyl]-5-methyl-4H-isoxazole-5-carboxylate]	30	25	43	28	–	–	–	–
C#CCN1C(=O)C(F)(F)Oc2cc(F)c(-n3c(=O)n(C)c(=S)n(C)c3=O)cc21 [Herbicide B, trifludimoxazin]	–	–	–	–	23	12	36	18
CC(C)N(C)S(=O)(=O)NC(=O)c1cc(-n2c(=O)cc(C(F)(F)F)n(C)c2=O)c(F)cc1Cl [Herbicide E, saflufenacil]	61	64	56	51	–	–	–	–
